# Data as given in PMC9804055, “Kinase inhibit region of SOCS3 attenuates IL6‐induced proliferation and astrocytic differentiation of neural stem cells via cross talk between signaling pathways” (CNS Neuroscience & Therapeutics, 2022).
# Assays:
# Type in all cases: cell-based, SD rats
# NSCs [1] = test: Cell cycle analysis by FACS, proliferation index; conditions: third day, mean ± SD, n = 3
# Procedure: (§1) NSCs survival and growth were analyzed by using cell counting kit‐8 (#CK04, Dojindo, CCK‐8). NSCs were randomly allocated in the Control, TAT‐scramble, TAT‐KIR, IL‐6, and TAT‐KIR+IL6 groups. All NSCs seeded into 96‐well plates at 5 × 10^4 cells/ml and cultured in growth medium for 24 h. IL‐6 in the concentration of 100 ng/ml was applied to mimic inflammatory condition. Thirty minutes later, TAT‐KIR or TAT‐scramble was added into the culture system. Cell viability of each group was observed by Universal Microplate Spectrophotometer (QuantTM, BioTek) at first, third, and fifth day after peptide administration (Figure 3A). Optical density (OD) values at 450 nm were measured. Immunocytochemistry staining with ki67 (#ab16667, Abcam, 1:300) was used to assess NSC proliferation. Cell cycles were analyzed by FACS at third day after peptide administration. The rates of cells in G0/G1, S, and G2/M were measured, and the proliferation index (PI) {PI = (S + G2/M)/([…] + S + G2/M) × 100%} was calculated, respectively. In each independent experiment, the procedures were carried out in triplicate.
# GFAP = test: Western blotting, GFAP expression; conditions: mean ± SD, n = 3
# Procedure: (§2) NSCs at 1 × 10^6 cells/ml in 6‐well plate were treated with IL‐6 and TAT‐KIR as above. Cells were harvested at 3 h, 6 h, 12 h, 24 h, or 7 days after treatment. Cells were suspended in lysis buffer containing 150 μl RIPA (#89900, Pierce) protease and phosphatase inhibitor cocktail (#4693159001 and 04906845001, Roche). Cell lysates were incubated on ice for 20 min and centrifuged at 12,000 rpm for 15 min at 4°C. The proteins in supernatant were separated by electrophoresis with 10%–12% sodium dodecyl sulfate polyacrylamide gel (SDS‐PAGE) and then transferred onto 0.22 μm polyvinylidene difluoride membranes (PVDF; #IPVH00010, Millipore). The membranes were blocked in 5% BSA dissolved in Tris‐buffered saline containing 0.1% Tween‐20 for 2 h at room temperature and then were incubated overnight at 4°C with primary antibodies, including GFAP (#ab7260, Abcam, 1:1000), β Tublin III (#MAB1637, Millipore, 1:1000), and STAT3, p‐STAT3, P38, p‐P38, ERK1/2, p‐ERK1/2, AKT, p‐AKT, JNK2, p‐JNK2(#4904, 9145, 8690, 4511, 4695, 9101, 4685, 4060, 9258, 4668, Cell Signaling, all in 1:1000) and β‐actin (#A01263, Boster Biological Technology, 1:20,000). After washing, the membranes were incubated with the secondary antibodies (HRP conjugated anti‐rabbit or anti‐mouse IgG) for 2 h at room temperature. […] All data were analyzed with Image J (version 1.61).
# NSCs [2] = test: NSCs differentiation, immunostaining of GFAP and β tubulin III positive cells; conditions: 7 DIV, mean ± SD, n = 9
# Procedure: NSCs at 1 × 10^5 cells/ml were seeded into 24‐well plates allocated randomly in Control, TAT‐KIR, IL‐6, and TAT‐KIR+IL6 groups. After 24 h culture with differentiation media, IL‐6 and TAT‐KIR were added into the medium as above order and reapplied every other day (Figure 4A). Cells were harvested at 7 DIV. Immunocytochemical staining was performed with different antibodies, including GFAP and β Tublin III. […] Then the numbers of GFAP positive and β Tubulin III positive cells were counted, and the percentages of differentiated cells were calculated by using Image J (version 1.61).
# NSCs [3] = test: Ki67 immunocytochemistry, NSC proliferation; conditions: 3 days, mean ± SD
# Procedure: as §1
# β tubulin III = test: Western blotting, β tubulin III expression; conditions: mean ± SD, n = 3
# Procedure: as §2
# p‐ERK1/2 = test: Western blotting, p-ERK1/2 / ERK1/2; conditions: mean ± SD, n = 3
# Procedure: as §2
# p‐AKT = test: Western blotting, p-AKT/AKT; conditions: for rate of p-AKT to AKT: mean ± SD, n = 3
# Procedure: (§3) NSCs at 1 × 10^6 cells/ml in 6‐well plate were treated with IL‐6 and TAT‐KIR as above. Cells were harvested at 3 h, 6 h, 12 h, 24 h, or 7 days after treatment. Cells were suspended in lysis buffer containing 150 μl RIPA (#89900, Pierce) protease and phosphatase inhibitor cocktail (#4693159001 and 04906845001, Roche). Cell lysates were incubated on ice for 20 min and centrifuged at 12,000 rpm for 15 min at 4°C. The proteins in supernatant were separated by electrophoresis with 10%–12% sodium dodecyl sulfate polyacrylamide gel (SDS‐PAGE) and then transferred onto 0.22 μm polyvinylidene difluoride membranes (PVDF; #IPVH00010, Millipore). The membranes were blocked in 5% BSA dissolved in Tris‐buffered saline containing 0.1% Tween‐20 for 2 h at room temperature and then were incubated overnight at 4°C with primary antibodies, including GFAP (#ab7260, Abcam, 1:1000), β Tublin III (#MAB1637, Millipore, 1:1000), and STAT3, p‐STAT3, P38, p‐P38, ERK1/2, p‐ERK1/2, AKT, p‐AKT, JNK2, p‐JNK2(#4904, 9145, 8690, 4511, 4695, 9101, 4685, 4060, 9258, 4668, Cell Signaling, all in 1:1000) and β‐actin (#A01263, Boster Biological Technology, 1:20,000). After washing, the membranes were incubated with the secondary antibodies (HRP conjugated anti‐rabbit or anti‐mouse IgG) for 2 h at room temperature. The membranes were visualized by an enhanced chemiluminescence (ECL) kit. All data were analyzed with Image J (version 1.61).
# p‐STAT3 = test: Western blotting, p-STAT3/STAT3; conditions: for rate of p-STAT3 to STAT3: differentiation medium, 7 days, mean ± SD, n = 3
# Procedure: as §3
# p‐JNK2 = test: Western blotting, p-JNK2/JNK2; conditions: mean ± SD, n = 3
# Procedure: as §3
# [4] = substance alone, PI = (S + G2/M)/(all phases) × 100%
# [5] = substance alone, 7 days differentiation
# [6] = substance alone, differentiation medium
# [7] = substance alone, growth medium, IL-6 100 ng/ml, TAT-KIR 3 μM, n = 9 figures from three experiments
# [8] = substance alone, 3 h after treatment
# [9] = TAT-KIR together with IL-6 100 ng/ml
# [10] = TAT-KIR together with IL-6, 7 days differentiation
# [11] = TAT-KIR together with IL-6, treatment for 3 h
substance,measurement,setting,value
"IL‐6: inflammatory cytokine, 100 ng/ml applied to mimic inflammatory condition [reference compound]",proliferation index (PI),NSCs [1]; [4],34.61 ± 4.12%
same,percentage of cells in G0/G1 phase,NSCs [1]; substance alone,65.39 ± 4.12%
same,percentage of cells in S phase,NSCs [1]; substance alone,28.14 ± 2.79%
same,GFAP expression (Western blotting),GFAP; [5],1.30 ± 0.127
same,percentage of GFAP positive cells (astrocytic differentiation),NSCs [2]; [6],45.72 ± 7.50%
same,percentage of β tubulin III positive cells (neuronal differentiation),NSCs [2]; [6],32.33 ± 5.68%
same,percentage of Ki67 positive proliferating cells (Ki67/DAPI),NSCs [3]; [7],54.33 ± 10.29%
same,β tubulin III expression (Western blotting),β tubulin III; [5],1.22 ± 0.044
same,rate of p-ERK1/2 to ERK1/2,p‐ERK1/2; [5],0.75 ± 0.070
same,rate of p-AKT to AKT,p‐AKT; [5],1.05 ± 0.081
same,rate of p-STAT3 to STAT3,p‐STAT3; substance alone,0.88 ± 0.093
same,p-JNK/JNK,p‐JNK2; [8],0.54 ± 0.056
same,p-JNK/JNK,"p‐JNK2; substance alone, 6 h after treatment",0.67 ± 0.062
same,rate of p-JNK2 to JNK2,p‐JNK2; [5],0.63 ± 0.049
RKKRRQRRR‐LR‐LKTFSSKSEYQL‐V [TAT‐KIR],percentage of cells in G0/G1 phase,NSCs [1]; [9],73.18 ± 3.04%
same,percentage of cells in S phase,NSCs [1]; [9],19.31 ± 3.32%
same,proliferation index (PI),NSCs [1]; [9],26.82 ± 3.04%
same,proliferation index (PI),NSCs [1]; [4],14.34 ± 1.98%
same,percentage of cells in G0/G1 phase,NSCs [1]; substance alone,85.66 ± 1.98%
same,percentage of cells in S phase,NSCs [1]; substance alone,9.56 ± 0.22%
same,GFAP expression (Western blotting),GFAP; [10],0.88 ± 0.091
same,percentage of GFAP positive cells (astrocytic differentiation),NSCs [2]; [9],36.78 ± 6.81%
same,percentage of β tubulin III positive cells (neuronal differentiation),NSCs [2]; [9],30.33 ± 4.39%
same,percentage of GFAP positive cells (astrocytic differentiation),NSCs [2]; [6],30.67 ± 4.66%
same,percentage of β tubulin III positive cells (neuronal differentiation),NSCs [2]; [6],26.78 ± 4.79%
same,percentage of Ki67 positive proliferating cells (Ki67/DAPI),"NSCs [3]; TAT-KIR 3 μM applied together with IL-6 100 ng/ml, n = 9",41.33 ± 7.72%
same,percentage of Ki67 positive proliferating cells (Ki67/DAPI),NSCs [3]; [7],20.67 ± 3.74%
same,β tubulin III expression (Western blotting),β tubulin III; [10],1.21 ± 0.025
same,rate of p-ERK1/2 to ERK1/2,p‐ERK1/2; [10],0.68 ± 0.041
same,rate of p-AKT to AKT,p‐AKT; [10],0.87 ± 0.037
same,p-AKT expression of IL-6-induced NSCs,p‐AKT; [11],dramatically reduced
same,rate of p-STAT3 to STAT3,p‐STAT3; [9],0.61 ± 0.025
same,p-STAT3 expression of IL-6-induced NSCs,p‐STAT3; [11],dramatically reduced
same,rate of p-STAT3 to STAT3,p‐STAT3; substance alone,did not affect
same,rate of p-JNK2 to JNK2,p‐JNK2; [10],0.63 ± 0.042
same,p-JNK/JNK,p‐JNK2; [8],0.30 ± 0.040
same,p-JNK/JNK,"p‐JNK2; substance alone, 12 h after treatment",0.50 ± 0.090
same,rate of p-JNK2 to JNK2,p‐JNK2; [5],increased trend
